Consider one compound from publication PMC10899790, “A bromodomain-independent mechanism of gene regulation by the BET inhibitor JQ1: direct activation of nuclear receptor PXR” (Nucleic Acids Research, 2023).

For one data set, the target named is T1, human PXR (Homo sapiens, UniProt O75469).
T1 sequence (O75469 1-434): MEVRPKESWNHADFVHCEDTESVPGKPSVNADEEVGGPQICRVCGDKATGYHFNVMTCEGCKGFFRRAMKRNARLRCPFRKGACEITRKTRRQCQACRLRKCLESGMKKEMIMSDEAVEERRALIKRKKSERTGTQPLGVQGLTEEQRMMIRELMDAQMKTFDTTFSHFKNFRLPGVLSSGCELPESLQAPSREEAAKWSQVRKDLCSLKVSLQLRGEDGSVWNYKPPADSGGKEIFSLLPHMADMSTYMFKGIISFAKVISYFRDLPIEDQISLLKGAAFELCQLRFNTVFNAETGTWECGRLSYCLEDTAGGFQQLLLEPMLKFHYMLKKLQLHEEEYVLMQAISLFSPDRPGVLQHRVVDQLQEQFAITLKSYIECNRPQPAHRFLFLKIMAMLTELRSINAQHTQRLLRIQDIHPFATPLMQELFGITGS
The data set is described as follows: PXR transactivation assay (CYP3A4-luciferase reporter). The method, then:
Assays were performed similarly as previously described with minor modifications ([30–32]). HepG2 cells (7.5 × 10^5/well) were plated in six-well tissue culture-treated plates. The following day, cells were co-transfected with pGL3-CYP3A4-luc (2 μg/well), pRL-CMV (200 ng/well) and 100 ng/well of either empty vector (pcDNA3), pcDNA3-FLAG-PXR, pCMV6-mPXR or pGL4.53-PGK-PXR using Lipofectamine 3000 (Thermo Fisher Scientific). Twenty-four hours after transfection, cells were trypsinized and suspended in phenol red-free DMEM (Thermo Fisher Scientific) supplemented with 5% charcoal/dextran-treated FBS (HyClone), and 1 × 10^4 cells/well in 25 μl media were added to white 384-well plates. […] After 24 h, the Dual-Glo Luciferase Assay System (Promega) and EnVision microplate reader (PerkinElmer) were used to measure firefly and Renilla luciferase activities. CMV-driven Renilla luciferase was used as an indicator of general transcriptional modulation by the test compounds and is plotted as fold change (FC) relative to DMSO controls. Assays utilizing pGL4.54[luc2/TK], pGL4.53[luc2/PGK], or pGL4.13[luc2/SV40] were similarly performed and normalized. For the PXR-responsive CYP3A4-luciferase reporter, the measured relative light units (RLU) were normalized for each well using equation (1),
RLUT0901317 represents the measured RLU from wells containing 1 μM T0901317. For mPXR assays, 5 μM PCN was used in place of T0901317.
On the technique in general: Reporter assays use an easily measured gene product as a stand-in for the process of interest.

The test system of the next data set is HepG2 cells. The data set is described as follows: Cytotoxicity assay (CellTiter-Glo). In kind it is cell-based, human. As to conditions: HepG2, 24 h. The method, then: HepG2 cells (1 × 10^4/well in 25 μl phenol red-free DMEM supplemented with 5% charcoal/dextran-treated FBS) were plated and treated as in the transactivation assays. After 24 h compound treatment, the CellTiter-Glo Luminescent Cell Viability Assay (Promega) and an EnVision microplate reader were used to assess cytotoxicity. DMSO wells with cells served as negative controls, and wells without cells served as positive controls. The averaged luminescence signal of the wells without cells was subtracted from the luminescence signals of all other wells, and the background subtracted values were normalized to DMSO-treated wells containing cells to obtain percent cell viability.
Background: ATP-based viability assays read luminescence as a measure of living cells.

The next data set has as its system CMV promoter. The data set is described as follows: CMV-Renilla luciferase reporter. In kind it is cell-based, human. The following applies: HepG2, 24 h; fold change relative to DMSO.
A further data set concerns the target T2, PXR LBD (Homo sapiens, UniProt O75469).
T2 construct: GST-PXR LBD protein (cat. # PV4841) were purchased from Thermo Fisher Scientific; purchased Thermo Fisher Scientific PV4841
T2 sequence (O75469 146-433 limits assumed): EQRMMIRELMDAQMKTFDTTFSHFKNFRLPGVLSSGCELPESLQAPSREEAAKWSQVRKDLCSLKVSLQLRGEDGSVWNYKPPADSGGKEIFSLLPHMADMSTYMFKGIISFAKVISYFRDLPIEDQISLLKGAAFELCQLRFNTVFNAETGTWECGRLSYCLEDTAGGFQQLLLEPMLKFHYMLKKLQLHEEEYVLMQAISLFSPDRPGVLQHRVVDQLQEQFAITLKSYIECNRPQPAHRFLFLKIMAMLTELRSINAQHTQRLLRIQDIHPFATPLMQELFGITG
Description: TR-FRET PXR LBD ligand binding assay. As to conditions: TR-FRET competition with BODIPY FL vindoline. The method, then: The TR-FRET PXR LBD ligand binding assay measures binding of PXR ligands by competition with a fluorescently labeled ligand (BODIPY FL vindoline) (Supplementary Figure S3) and was performed as previously described with minor modifications ([24]). […] BODIPY FL vindoline (15 μl/well, 133.3 nM in assay buffer) was dispensed into 384-well low-volume black assay plates. An Echo 650 Acoustic Liquid Handler then dispensed 60 nl/well of compound stocks or DMSO.

A further data set deals with PXR. Description: RNA induction in HepaRG: PXR RNA (RT-qPCR). The data set is classed as cell-based, human. As to conditions: differentiated HepaRG, 24 h; FC relative to DMSO. (In qPCR the cycle at which signal appears reflects the starting amount.)
A further data set concerns BET proteins. Set-up: method as in PMID 20871596. As to conditions: cited from earlier work.
The subject of another data set is CYP3A4. Description: RNA induction in HepaRG: CYP3A4 mRNA (RT-qPCR). The following applies: differentiated HepaRG, 24 h.

As to `Cc1sc2c(c1C)C(c1ccc(Cl)cc1)=N[C@H](CC(=O)OC(C)(C)C)c1nnc(C)n1-2` [(−)-JQ1], the “activation of CYP3A4-luciferase reporter with PXR expressed from a PGK promoter” value on human PXR (HepG2, 24 h, PGK-driven PXR) was “retained activation of the CYP3A4-luciferase reporter”. Moreover, on human PXR (human), the “activation of PXR-responsive CYP3A4-luciferase reporter” value is recorded as “activated the CYP3A4-luciferase reporter with similar potency but greater efficacy than JQ1”. The “cytotoxicity (cell viability)” value was “decreased cytotoxicity” with HepG2 cells and “less cytotoxic than JQ1” with HepG2 cells (listed as (-)-JQ1). For the same compound, the “CMV-Renilla luciferase reporter expression” value with CMV promoter is reported as “only marginally induced the CMV-Renilla luciferase reporter at high concentrations”. Besides, the “binding to purified PXR LBD (binding potency)” value on PXR LBD is “comparable to rifampicin in binding potencies”. For the same compound, the “PXR RNA expression” value in the data set with PXR is “much less than that observed with the BET inhibitors”. Further, in the data set on BET proteins, the “binding to BET proteins” value is reported as “does not bind BET proteins”. For the same compound, the “endogenous CYP3A4 mRNA expression” value with CYP3A4 (FC relative to DMSO) is reported as “more robustly induced CYP3A4 expression than JQ1”. The “endogenous CYP3A4 mRNA expression on co-treatment with SPA70” value with CYP3A4 (co-treated with SPA70) is recorded as “without reducing CYP3A4 in the presence of SPA70”.
